From ChEMBL document CHEMBL5727951, “Substituted benzamides and methods of use thereof” (2020)

Assay: Tritiated Sulfonamide Binding to Membranes: isolated from cells that heterologously express hNav1.7 and the β1 subunit Preparation of membranes containing recombinantly expressed sodium channels: Frozen recombinant cell pellets were thawed on ice and diluted to 4 times the cell pellet weight with ice cold 50 mM Tris HCl, pH 7.4 buffer. The cell suspensions were homogenized on ice using a motorized glass dounce homogeniser. Homogenates were further diluted 8.4 times with ice cold 50 mM Tris HCl, pH 7.4 buffer and then centrifuged at 200×g at 4° C. for 15 min. The supernatants were collected and centrifuged at 10000×g at 4° C. for 50 min. The pellets were then re-suspended in 100 mM NaCl, 20 mM Tris HCl, pH 7.4 buffer containing 1% v/v protease inhibitors (Calbiochem) and re-homogenized on ice. The homogenized membranes were then processed through a syringe equipped with a 26 gauge needle. Protein concentrations were determined by Bradford Assay and the membranes were stored at −80° C.Radioligand Binding Studies:Saturation experiments. A representative compound of formula (I) having a methyl group was tritiated. Three tritiums were incorporated in place of methyl hydrogens to generate [3H]compound. Binding of this radioligand was preformed in 5 mL borosilicate glass test tubes at room temperature. Binding was initiated by adding membranes to increasing concentrations of [3H]compound in 100 mM NaCl, 20 mM Tris HCl, pH 7.4 buffer containing 0.01% w/v bovine serum albumin (BSA) for 18 h. Non-specific binding was determined in the presence of 1 μM unlabelled compound. After 18 h, the reactants were filtered through GF/C glass fiber filters presoaked in 0.5% w/v polyethylene imine. Filters were washed with 15 mL ice cold 100 mM NaCl, 20 mM Tris HCl, pH7.4 buffer containing 0.25% BSA to separate bound from free ligand. [3H]compound bound to filters was quantified by liquid scintillation counting.Competitive Binding Experiments:Binding reactions were preformed in 96-well polypropylene plates at room temperature for 18 h. In 360 μL, membranes were incubated with 100 pM [3H]compound and increasing concentrations of Test Compound. Non-specific binding was defined in the presence of 1 μM unlabelled compound. Reactions were transferred and filtered through 96-well glass fiber/C filter plates presoaked with 0.5% polyethylene imine. The filtered reactions were washed 5 times with 200 μL ice cold buffer containing 0.25% BSA. Bound radioactivity was determined by liquid scintillation counting.Data Analysis: For saturation experiments, non-specific binding was subtracted from total binding to provide specific binding and these values were recalculated in terms of pmol ligand bound per mg protein. Saturation curves were constructed and dissociation constants were calculated using the single site ligand binding model: Beq=(Bmax*X)/(X+Kd), where Beq is the amount of ligand bound at equilibrium, Bmax is the maximum receptor density, Kd is the dissociation constant for the ligand, and X is the free ligand concentration. For competition studies percent inhibition was determined and IC50 values were calculated using a 4 parameter logistic model (% inhibition=(A+((B−A)/(1+((x/C)^D)))) using XLfit, where A and B are the maximal and minimum inhibition respectively, C is the IC50 concentration and D is the (Hill) slope.

| SMILES | IC50 [nM] |
| --- | --- |
| CC(C)Oc1ncc(Oc2cc(F)c(C(=O)NS(=N)(=O)C3CC3)cc2Cl)cc1Cl (centres undefined) | 18.1 |
| N=S(=O)(NC(=O)c1cc(F)c(Oc2ccc(OC(F)(F)F)c(Cl)c2)cc1F)C1CC1 (centres undefined) | 238 |
| N=S(=O)(NC(=O)c1cc(C2CC2)c(O[C@@H]2CCCN(Cc3c(Cl)cccc3Cl)C2)cc1F)C1CC1 (some centres undefined) | 2290 |
| COc1cc(C(=O)NS(=N)(=O)C2CC2)c(F)cc1OCC12CC3CC(CC(C3)C1)C2 (centres undefined) | 210 |
| N=S(=O)(NC(=O)c1cc(C2CC2)c(COc2cc(F)cc(C(F)(F)F)c2)cc1F)C1CC1 (centres undefined) | 14.2 |
| N=S(=O)(NC(=O)c1cc(C2CC2)c(OCC23CC4CC(CC(C4)C2)C3)cc1F)N1CCC1 (centres undefined) | 80.9 |
| C[C@@H](c1cc(Cl)cc(Cl)c1)N1CCC(COc2cc(F)c(C(=O)NS(=N)(=O)C3CC3)cc2C2CC2)CC1 (some centres undefined) | 92.5 |
| N=S(=O)(NC(=O)c1cc(Cl)c(Oc2cnc(OCC(F)(F)C(F)F)c(Cl)c2)cc1F)N1CCC1 (centres undefined) | 159 |
| N=S(=O)(NC(=O)c1cc(C2CC2)c(OCC2(F)CCN(Cc3cc(C(F)(F)F)cc(Cl)c3F)CC2)cc1F)C1CC1 (centres undefined) | 182 |
| C[C@@H](c1cc(Cl)cc(Cl)c1)N1CCC(COc2ccc(C(=O)NS(=N)(=O)C3CC3)cc2C2CC2)CC1 (some centres undefined) | 616 |
| COc1ncccc1-c1cc(C(=O)NS(=N)(=O)C2CC2)c(F)cc1Oc1cnc(OC(C)C)c(Cl)c1 (centres undefined) | 19.8 |
| N=S(=O)(NC(=O)c1cc(Cl)c(Oc2cnc(OCC(F)(F)C(F)F)c(Cl)c2)cc1F)C1CC1 (centres undefined) | 23.8 |
| N=S(=O)(NC(=O)c1cc(Cl)c(Oc2cnc(OCC(F)(F)F)c(Cl)c2)cc1F)C1CC1 (centres undefined) | 23.6 |
| N=S(=O)(NC(=O)c1cc(C2CC2)c(COc2cc(Cl)cc(OC(F)(F)F)c2)cc1F)C1CC1 (centres undefined) | 8.67 |
